Reference: patent publication US8822446B2, “Pyrrolopyridine inhibitors of kinases” (AbbVie Inc., priority 2010, dated 2014)

Target: T1, Cdc7 (BEV coexpressed huCDC7/DBF4) (Homo sapiens, UniProt O00311)
T1 construct: made in house; host or cells: baculovirus expression vector (BEV) co-expression
Test: Cdc7 enzyme inhibition assay ([33P]-ATP, biotinylated peptide substrate, FlashPlate)
Assay type: biochemical
Settings: Ki generated from IC50 assuming ATP-competitive inhibition; 1 μM ATP, apparent ATP Km 0.7 μM; 1 hr reaction
Description: This example describes the assays that may be used to identify compounds having kinase activity.
Cdc7 (BEV coexpressed huCDC7/DBF4) is prepared internally. Cdc7 assays are conducted as follows with final concentrations as listed. In 384-well v-bottom polypropylene plates, 6 μL compound (2% DMSO), is mixed with 6 μL of Cdc7 (2 ug/mL), and Jerini peptide substrate A-A11 (biotin-C6linker-[…]) (2 μM), followed by immediate initiation with 6 μL […] (1 μM, 20 mCi/μmol) using a reaction buffer comprising 25 mM HEPES, pH 7.5, 1 mM DTT, 10 mM MgCl2, 100 μM, Na3VO4, 0.075 mg/ml Triton X-100. Reactions are quenched after 1 hr by the addition of 90 μL stop buffer (50 mM EDTA, 2M NaCl).
Table 1 depicts enzyme inhibition data (Ki) for exemplary compounds.

T1 sequence (O00311 whole entry): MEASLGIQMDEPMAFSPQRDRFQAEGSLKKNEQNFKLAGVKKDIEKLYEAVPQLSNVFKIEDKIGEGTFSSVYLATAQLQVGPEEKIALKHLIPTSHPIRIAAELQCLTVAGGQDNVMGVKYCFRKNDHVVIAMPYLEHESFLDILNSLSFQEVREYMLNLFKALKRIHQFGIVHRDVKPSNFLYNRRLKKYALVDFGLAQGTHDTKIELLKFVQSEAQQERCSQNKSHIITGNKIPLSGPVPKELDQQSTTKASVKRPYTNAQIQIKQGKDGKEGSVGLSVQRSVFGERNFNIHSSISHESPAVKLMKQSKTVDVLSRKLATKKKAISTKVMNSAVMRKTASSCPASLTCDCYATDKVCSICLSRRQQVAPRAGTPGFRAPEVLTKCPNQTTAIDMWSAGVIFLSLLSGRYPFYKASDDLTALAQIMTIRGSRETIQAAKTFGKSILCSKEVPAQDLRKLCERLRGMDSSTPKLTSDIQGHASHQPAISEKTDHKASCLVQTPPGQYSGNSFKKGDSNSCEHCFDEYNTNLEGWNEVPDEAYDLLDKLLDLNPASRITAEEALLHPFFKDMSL
T1 sequence (Q9UBU7 whole entry partner): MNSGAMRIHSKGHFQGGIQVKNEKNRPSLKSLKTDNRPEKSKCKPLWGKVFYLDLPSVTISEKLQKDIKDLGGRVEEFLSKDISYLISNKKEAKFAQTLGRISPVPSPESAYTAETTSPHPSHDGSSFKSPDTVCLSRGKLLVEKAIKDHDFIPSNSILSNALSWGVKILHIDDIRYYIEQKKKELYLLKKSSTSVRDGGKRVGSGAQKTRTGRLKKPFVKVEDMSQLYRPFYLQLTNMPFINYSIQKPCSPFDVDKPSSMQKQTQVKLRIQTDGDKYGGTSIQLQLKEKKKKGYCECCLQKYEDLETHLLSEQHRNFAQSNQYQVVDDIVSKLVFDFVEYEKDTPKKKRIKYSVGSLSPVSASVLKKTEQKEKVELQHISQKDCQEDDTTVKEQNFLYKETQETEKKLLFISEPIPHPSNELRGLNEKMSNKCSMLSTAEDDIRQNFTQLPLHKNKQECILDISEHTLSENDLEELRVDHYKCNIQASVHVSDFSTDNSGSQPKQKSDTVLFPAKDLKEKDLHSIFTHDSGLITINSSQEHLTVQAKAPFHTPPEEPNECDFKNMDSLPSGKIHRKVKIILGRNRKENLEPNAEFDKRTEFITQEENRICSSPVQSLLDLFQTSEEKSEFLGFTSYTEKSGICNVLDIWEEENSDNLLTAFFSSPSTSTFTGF

Row | SMILES | Ki [nM]
1 | O=c1cc(-c2c[nH]c3ncccc23)cc(-c2cccc(Cl)c2)[nH]1 [Example 42, 6-(3-chlorophenyl)-4-(1H-pyrrolo[2,3-b]pyridin-3-yl)pyridin-2(1H)-one] | < 10
2 | COc1cccc(-c2cc(-c3c[nH]c4ncccc34)cc(=O)[nH]2)c1OC [Example 43, 6-(2,3-dimethoxyphenyl)-4-(1H-pyrrolo[2,3-b]pyridin-3-yl)pyridin-2(1H)-one] | < 10
3 | COc1cccc(-c2cc(-c3c[nH]c4ncccc34)cc(=O)[nH]2)c1F [Example 44, 6-(2-fluoro-3-methoxyphenyl)-4-(1H-pyrrolo[2,3-b]pyridin-3-yl)pyridin-2(1H)-one] | < 10
4 | O=c1cc(-c2c[nH]c3ncccc23)cc(-c2ccc(Cl)cc2F)[nH]1 [Example 45, 6-(4-chloro-2-fluorophenyl)-4-(1H-pyrrolo[2,3-b]pyridin-3-yl)pyridin-2(1H)-one] | < 10
5 | COc1ccc(C(F)(F)F)cc1-c1cc(-c2c[nH]c3ncccc23)cc(=O)[nH]1 [Example 46, 6-[2-methoxy-5-(trifluoromethyl)phenyl]-4-(1H-pyrrolo[2,3-b]pyridin-3-yl)pyridin-2(1H)-one] | < 10
6 | COc1ncccc1-c1cc(-c2c[nH]c3ncccc23)cc(=O)[nH]1 [Example 47, 2′-methoxy-4-(1H-pyrrolo[2,3-b]pyridin-3-yl)-2,3′-bipyridin-6(1H)-one] | < 10
7 | Cc1c(Cl)cccc1-c1cc(-c2c[nH]c3ncccc23)cc(=O)[nH]1 [Example 48, 6-(3-chloro-2-methylphenyl)-4-(1H-pyrrolo[2,3-b]pyridin-3-yl)pyridin-2(1H)-one] | < 10
8 | COc1nccc(-c2cc(-c3c[nH]c4ncccc34)cc(=O)[nH]2)c1Cl [Example 49, 3′-chloro-2′-methoxy-4-(1H-pyrrolo[2,3-b]pyridin-3-yl)-2,4′-bipyridin-6(1H)-one] | < 10
9 | O=c1cc(-c2c[nH]c3ncccc23)cc(-c2cccc(N3CCOCC3)c2)[nH]1 [Example 50, 6-[3-(morpholin-4-yl)phenyl]-4-(1H-pyrrolo[2,3-b]pyridin-3-yl)pyridin-2(1H)-one] | < 10
10 | CS(=O)(=O)c1cccc(-c2cc(-c3c[nH]c4ncccc34)cc(=O)[nH]2)c1 [Example 51, 6-[3-(methylsulfonyl)phenyl]-4-(1H-pyrrolo[2,3-b]pyridin-3-yl)pyridin-2(1H)-one] | < 10
11 | O=c1cc(-c2c[nH]c3ncccc23)cc(-c2cn[nH]c2)[nH]1 [Example 52, 6-(1H-pyrazol-4-yl)-4-(1H-pyrrolo[2,3-b]pyridin-3-yl)pyridin-2(1H)-one] | < 10
12 | Cc1ncccc1-c1cc(-c2c[nH]c3ncccc23)cc(=O)[nH]1 [Example 53, 2′-methyl-4-(1H-pyrrolo[2,3-b]pyridin-3-yl)-2,3′-bipyridin-6(1H)-one] | < 10
13 | COc1cccc(Nc2cc(-c3c[nH]c4ncccc34)cc(=O)[nH]2)c1 [Example 54, 6-[(3-methoxyphenyl)amino]-4-(1H-pyrrolo[2,3-b]pyridin-3-yl)pyridin-2(1H)-one] | < 10
14 | O=c1cc(-c2c[nH]c3ncccc23)cc(Nc2ccccc2)[nH]1 [Example 55, 6-anilino-4-(1H-pyrrolo[2,3-b]pyridin-3-yl)pyridin-2(1H)-one] | < 10
15 | N[C@H]1CC[C@H](Nc2cc(-c3c[nH]c4ncccc34)cc(=O)[nH]2)CC1 [Example 56, 6-[(trans-4-aminocyclohexyl)amino]-4-(1H-pyrrolo[2,3-b]pyridin-3-yl)pyridin-2(1H)-one] | < 10
16 | O=c1cc(-c2c[nH]c3ncccc23)cc(N[C@H]2CC[C@H](NS(=O)(=O)C3CC3)CC2)[nH]1 [Example 57, N-(trans-4-{[6-oxo-4-(1H-pyrrolo[2,3-b]pyridin-3-yl)-1,6-dihydropyridin-2-yl]amino}cyclohexyl)cyclopropanesulfonamide] | < 10
17 | O=C(N[C@H]1CC[C@H](Nc2cc(-c3c[nH]c4ncccc34)cc(=O)[nH]2)CC1)C1CC1 [Example 58, N-(trans-4-{[6-oxo-4-(1H-pyrrolo[2,3-b]pyridin-3-yl)-1,6-dihydropyridin-2-yl]amino}cyclohexyl)cyclopropanecarboxamide] | < 10
18 | O=C(N[C@H]1CC[C@H](Nc2cc(-c3c[nH]c4ncccc34)cc(=O)[nH]2)CC1)C1CN(Cc2ccc(F)cc2)C1 [Example 59, 1-(4-fluorobenzyl)-N-(trans-4-{[6-oxo-4-(1H-pyrrolo[2,3-b]pyridin-3-yl)-1,6-dihydropyridin-2-yl]amino}cyclohexyl)azetidine-3-carboxamide] | < 10
19 | Cc1ccc(-c2nc(-c3c[nH]c4ncccc34)cc(=O)[nH]2)cc1 [Example 60, 2-(4-methylphenyl)-6-(1H-pyrrolo[2,3-b]pyridin-3-yl)pyrimidin-4(3H)-one] | < 10
20 | Cc1cccc(-c2nc(-c3c[nH]c4ncccc34)cc(=O)[nH]2)c1 [Example 61, 2-(3-methylphenyl)-6-(1H-pyrrolo[2,3-b]pyridin-3-yl)pyrimidin-4(3H)-one] | < 10
21 | Cc1cccc(-c2nc(-c3c[nH]c4ncccc34)cc(=O)[nH]2)c1C [Example 62, 2-(2,3-dimethylphenyl)-6-(1H-pyrrolo[2,3-b]pyridin-3-yl)pyrimidin-4(3H)-one] | < 10
22 | NCCCOc1cccc(CNc2nc(-c3c[nH]c4ncccc34)cc(=O)[nH]2)c1 [Example 63, 2-{[3-(3-aminopropoxy)benzyl]amino}-6-(1H-pyrrolo[2,3-b]pyridin-3-yl)pyrimidin-4(3H)-one] | < 10
